Where two headings read alike, the source gives them in different places.
Columns and labels:
[1] = tested on: Leishmania donovani promastigotes expressing firefly luciferase; assay: antileishmanial luciferase assay on transgenic promastigotes; type: cell-based
Method: Antileishmanial activity of the compounds was tested on a transgenic cell line of Leishmania donovani promastigotes expressing firefly luciferase.^29a In a 96 well microplate assay, compounds with appropriate dilution were added to the leishmania promastigotes culture (2×10^6 cell/mL). The plates were incubated at 26° C. for 72 hours and growth of leishmania promastigotes was determined by luciferase assay with Steady Glo® reagent (Promega, USA). Pentamidine and Amphotericin B were used as standard antileishmanial agents. The analogues were simultaneously tested for cytotoxicity on VERO cells (monkey kidney fibroblast) by Neutral Red assay.^29b IC50 values for the compounds were computed from the growth inhibition curve.

[2] = tested on: P. falciparum W2 (IndoChina); assay: antimalarial parasite LDH (pLDH) assay, W2; type: cell-based, Plasmodium falciparum; settings: pLDH assay, Table 5; read-out: P. falciparum (W2 Clone) IC50
Method: (§1) The Thad Cochran National Center for Natural Products Research (University of Mississippi) in vitro antimalarial screen was conducted using an enzyme assay for detection of P. falciparum (see procedure below). This assay is based on the observation that lactate dehydrogenase (LDH) of P. falciparum is distinguishable from host LDH activity. P. falciparum LDH rapidly uses 3-acetyl pyridine nicotinamide adenine dinucleotide (APAD) as a coenzyme in the biotransformation of […].^38 The same process is carried out in human red blood cells at a very slow rate.
(§2) The “Antimalarial parasite LDH assay” is currently being conducted according the following procedure: prepare a suspension of RBC with a 2% parasitemia and 2% hematocrit in malaria complete medium. Dispense 200 μl aliquots of this suspension into each well of a 96 well microtiter plate. Add 10 μl volumes of the drugs to be tested in duplicate to the appropriate wells. Place the plates into humidified chamber and flush the cultures with a gas mixture consisting of 90% N2, 5% O2, and 5% CO2. Transfer the chamber containing the plates to an incubator, and incubate for 48 hours at 37° C. After 48 hours add 100 μl aliquots of the Malstat™ reagent to each well of a new 96-well microtiter plate Resuspend the cultures from the assay plate by mixing each well up and down several times. Remove 20 μl from each well of the resuspend culture and add to the plate containing the Malstat™ reagent. Incubate the plates at room temperature for 30 minutes. After 30 minutes, add to each well 20 μl of the 1:1 mixture of the NBT/PES solution (2 mg/ml and 0.1 mg/ml, respectively). Incubate the plates in the dark for 1 hour. Add 100 μl of 5% acetic acid solution to stop the reaction. The plate is then read at an endpoint of approximately 650 nm. The dose response curves are generated using Microsoft Excel.
(§3) Antimalarial activity of the analogues was determined in vitro on chloroquine sensitive (D)6, Sierra Leone) and resistant (W2, IndoChina) strains of Plasmodium falciparum. The 96 well microplate assay is based on evaluation of the effect of the compounds on the growth of asynchronous cultures of P. falciparum, determined by the assay of parasite lactate dehydrogenase (pLDH) activity.^28 The appropriate dilutions of the compounds were prepared in DMSO or RPMI-1640 medium and added to the cultures of P. falciparum (2% hematocrit, 2% parasitemia) set up in clear flat bottomed 96 well plates. The plates were placed into the humidified chamber and flushed with a gas mixture of 90% N2, 5% CO2 & 5% O2. The cultures were incubated at 37° C. for 48 hours. Growth of the parasite in each well was determined by pLDH assay using Malstat® reagent. The medium and RBC controls were also set-up in each plate.

[3] = tested on: P. falciparum D6 (Sierra Leone); assay: antimalarial parasite LDH (pLDH) assay, D6; type: cell-based, Plasmodium falciparum; settings: pLDH assay, Table 5; read-out: P. falciparum (D6 Clone) IC50
Method: as §1, §2
as §3, with “plate. The standard antimalarial agents, chloroquine and artemisinin, were used as the positive controls while DMSO was tested as the negative control.” for “plate.”

[4] = tested on: P. berghei N; assay: in vivo Peter's 4-day antimalarial test in mice, P. berghei N
Method: (§4) The parasitemia is determined on the day following the last treatment—day 4 to determine qualitatively the presence and degree of activity at the screening dose.

[5] = tested on: P. yoelli ssp. NS; assay: in vivo 4-day antimalarial test in mice, P. yoelli ssp. NS
Method: as §4

[6] = Table 1 (artemisinin analogues), NA = not active up to 125 μg/ml, read-out: Antileishmanial activity IC50
[7] = Table 3 (continues Table 1), read-out: Antileishmanial activity IC50
[8] = Table 4, NA = not active up to 125 μg/ml, read-out: IC50
[9] = mice, oral, 4-day test, unit not given
[10] = mice, subcutaneous, 4-day test, unit not given

Molecule: CC1CCC2C(CCCc3ccc(O)cc3)C(=O)OC3OC4(C)CCC1C32OO4 (single isomer, unassigned; (+)) [Compound 33]
- IC50 [1, 6]: 44.7 µM
- IC50 [2]: 0.0047 µM
- IC50 [3]: 0.0079 µM

Molecule: C[C@@H]1[C@H](O)[C@@H](C)/C=C/C=C/C=C/C=C/C=C/C=C/C=C/[C@H](O[C@@H]2O[C@H](C)[C@@H](O)[C@H](N)[C@@H]2O)C[C@@H]2O[C@](O)(C[C@@H](O)C[C@@H](O)[C@H](O)CC[C@@H](O)C[C@@H](O)CC(=O)O[C@H]1C)C[C@H](O)[C@H]2C(=O)O [Amphotericin B, reference compound]
- IC50 [1, 7]: 0.01 µM

Molecule: C[C@@H]1CC[C@H]2[C@@H](C)C(=O)O[C@@H]3O[C@@]4(C)CC[C@@H]1[C@]32OO4 [Artemisinin, artemisinin]
- IC50 [1, 6]: 124 µM
- IC50 [3]: 0.017 µM

Molecule: CC1CCC2C(CCCc3ccccc3)C(=O)OC3OC4(C)CCC1C32OO4 (stereo not shown) [Compound 26]
- IC50 [1, 6]: 11.6 µM
- IC50 [2]: 0.0013 µM
- IC50 [3]: 0.0047 µM

Molecule: CC1CCC2C(CCCc3ccccc3)C(=O)OC3OC4(C)CCC1C32OO4 (stereo not shown) [Compound 27]
- IC50 [1, 6]: 45.3 µM
- IC50 [2]: 0.0034 µM
- IC50 [3]: 0.0104 µM

Molecule: CC1CCC2C(CCCc3ccc(N(C)C)cc3)COC3OC4(C)CCC1C32OO4 (stereo not shown) [Compound 43a]
- IC50 [1, 7]: 36 µM
- IC50 [2]: 0.0143 µM
- IC50 [3]: 0.0165 µM

Molecule: CC1CCC2C(CCC#N)C(=O)OC3OC4(C)CCC1C32OO4 (stereo not shown) [Compound 52]
- IC50 [1, 6]: 38.9 µM
- IC50 [2]: 0.0149 µM
- IC50 [3]: 0.0149 µM

Molecule: CC1CCC2CC(=O)OC3OC4(C)CCC1C23OO4 (stereo not shown) [Compound 60]
- IC50 [1, 6]: 242 µM

Molecule: CC1CCC2C(C)(C)C(=O)OC3OC4(C)CCC1C32OO4 (stereo not shown) [Compound 62]
- IC50 [1, 6]: 101 µM

Molecule: CCCC1C(=O)OC2OC3(C)CCC4C(C)CCC1C24OO3 (stereo not shown) [Compound 63]
- IC50 [1, 6]: 16.8 µM

Molecule: C=CCC1C(=O)OC2OC3(C)CCC4C(C)CCC1C24OO3 (stereo not shown) [Compound 64]
- IC50 [1, 6]: 17.8 µM

Molecule: CCCCC1C(=O)OC2OC3(C)CCC4C(C)CCC1C24OO3 (stereo not shown) [Compound 65]
- IC50 [1, 6]: 12.3 µM

Molecule: CC1CCC2C(CCCCc3ccccc3)C(=O)OC3OC4(C)CCC1C32OO4 (stereo not shown) [Compound 70]
- IC50 [1, 6]: 7.5 µM

Molecule: CC1CCC2C(CCCc3cccc(F)c3)C(=O)OC3OC4(C)CCC1C32OO4 (stereo not shown) [Compound 71]
- IC50 [1, 6]: 3.7 µM

Molecule: CC1CCC2C(CCCc3ccc(Cl)cc3)C(=O)OC3OC4(C)CCC1C32OO4 (stereo not shown) [Compound 72]
- IC50 [1, 6]: 11.9 µM

Molecule: COc1ccc(CCCC2C(=O)OC3OC4(C)CCC5C(C)CCC2C35OO4)cc1 (stereo not shown) [Compound 73]
- IC50 [1, 6]: 12 µM

Molecule: CC1CCC2C(CCCc3cc(F)cc(F)c3)C(=O)OC3OC4(C)CCC1C32OO4 (stereo not shown) [Compound 74]
- IC50 [1, 6]: 49.7 µM

Molecule: CC1CCC2C(C)COC3OC4(C)CCC1C32OO4 (stereo not shown) [Compound 94]
- IC50 [1, 7]: 46.6 µM

Molecule: CC1CCC2C(CCCc3ccc(Cl)cc3)COC3OC4(C)CCC1C32OO4 (stereo not shown) [Compound 95]
- IC50 [1, 7]: 4.9 µM

Molecule: CC1CCC2C(CCCc3cccc(Cl)c3)COC3OC4(C)CCC1C32OO4 (stereo not shown) [Compound 96]
- IC50 [1, 7]: 3.7 µM

Molecule: CC1CCC2C(CCCc3ccc(Cl)c(Cl)c3)COC3OC4(C)CCC1C32OO4 (stereo not shown) [Compound 97]
- IC50 [1, 7]: 2.3 µM

Molecule: CC1CCC2C(CCCc3ccc(C(F)(F)F)cc3)COC3OC4(C)CCC1C32OO4 (stereo not shown) [Compound 98]
- IC50 [1, 7]: 1.8 µM

Molecule: COc1ccc(CCCC2COC3OC4(C)CCC5C(C)CCC2C35OO4)cc1 (stereo not shown) [Compound 99]
- IC50 [1, 7]: 17.4 µM

Molecule: CC1CCC2C(CCCc3cc(F)cc(F)c3)COC3OC4(C)CCC1C32OO4 (stereo not shown) [Compound 100]
- IC50 [1, 7]: 11 µM

Molecule: CC1CCC2C(CCCc3cc(C(F)(F)F)cc(C(F)(F)F)c3)COC3OC4(C)CCC1C32OO4 (stereo not shown) [Compound 101]
- IC50 [1, 7]: 0.3 µM

Molecule: CCCCN1C(=O)CC2CCC(C)C3CCC4(C)OOC23C1O4 (stereo not shown) [Compound 105]
- IC50 [1, 8]: 44.5 µM

Molecule: CC1CCC2CC(=O)N(CC(=O)OC(C)(C)C)C3OC4(C)CCC1C23OO4 (stereo not shown) [Compound 107]
- IC50 [1, 8]: 27.5 µM

Molecule: CC1CCC2CC(=O)N(Cc3ccccc3)C3OC4(C)CCC1C23OO4 (stereo not shown) [Compound 108]
- IC50 [1, 8]: 56 µM

Molecule: CC1CCC2CC(=O)N(Cc3ccc(Cl)cc3)C3OC4(C)CCC1C23OO4 (stereo not shown) [Compound 109]
- IC50 [1, 8]: 25.5 µM

Molecule: CC1CCC2CC(=O)N(CCc3ccccc3)C3OC4(C)CCC1C23OO4 (stereo not shown) [Compound 110]
- IC50 [1, 8]: 32.3 µM

Molecule: C[C@@H]1CC[C@@H]([C@@H](C)CO)[C@@]23C=C[C@@](C)(CC[C@@H]12)OO3 [Compound 112]
- IC50 ([1]; Leishmania donovani): 131 µM

Molecule: N=C(N)c1ccc(OCCCCCOc2ccc(C(=N)N)cc2)cc1 [Pentamidine, reference compound]
- IC50 ([1]; Leishmania donovani, read-out: Antileishmanial activity IC50): 1.35 µM

Molecule: C[C@H]1[C@H](OC(=O)CCC(=O)[O-])O[C@@H]2O[C@@]3(C)CC[C@H]4[C@H](C)CC[C@@H]1[C@@]24OO3.[Na+] [Sodium artesunate, sodium artesunate, reference compound]
- P. berghei N P.O. ED50 [4, 9]: 2.4
- P. berghei N P.O. ED90 [4, 9]: 13.0
- P. berghei N S.C. ED50 [4, 10]: 1.5
- P. berghei N S.C. ED90 [4, 10]: 6.3
- % Suppression ([4]; strain N, route PO): 77.2%
- ED50 ([4]; strain N, route PO): <10 mg/kg × 4
- ED90 ([4]; strain N, route PO): >10 mg/kg × 4
- % Suppression ([5]; strain NS, route PO): 56.5%
- ED50 ([5]; strain NS, route PO): <10 mg/kg × 4
- ED90 ([5]; strain NS, route PO): >10 mg/kg × 4
- P. yoelli ssp. NS (S.C.) ED50 ([5]; subcutaneous, unit inferred): 5.3 mg/kg
- P. yoelli ssp. NS (S.C.) ED90 ([5]; subcutaneous, unit inferred): 23.3 mg/kg

Molecule: (+)-Octabydro-3,6α-dimethyl-3,12-epoxy-9β-(3′-(m-fluorophenyl)propyl)-12H-pyrano[4,3j]-1,2-benzodioxepin-10(3H)-one [Compound 30]
- IC50 [1, 6]: 53.8 µM
- IC50 [2]: 0.02 µM
- IC50 [3]: 0.0301 µM

Molecule: (+)-Octahydro3,6α-dimethyl-3,12-epoxy-9β-(3′-(3,5-difluorophenyl)propyl)-12H-pyrano[4,3j)-1,2-benzodioxepin-10(3H)-one [Compound 34]
- IC50 [1, 6]: 14.4 µM
- IC50 [2]: 0.016 µM
- IC50 [3]: 0.0188 µM

Molecule: (+)-Octahydro-3,6α-dimethyl-3,12-epoxy-9β-(3′-(trifluoromethyl)propyl)-12H-pyrano[4,3j]-1,2-benzodioxepin-10(3H)-one [Compound 28]
- IC50 [1, 6]: 1.4 µM
- IC50 [2]: 0.0508 µM
- IC50 [3]: 0.0439 µM
